Source: patent US20020028472A1, “Methods for identifying inhibitors of the anaphase promoting complex” (priority 2000, published 2002)

Biological target: T1, APC11 fused to Maltose Binding Protein (MBP-APC11) (Homo sapiens, UniProt Q9NYG5)
T1 construct: obtained by inserting the APC11 coding region into the commercially available vector pMAL, New England Biolabs; made in house; host or cells: E. coli, grown with 1 mM ZnCl2; purified on amylose resin
Assay: FRET assay of APC11-mediated formation of multiubiquitin chains
Assay type: biochemical
Settings: DTT titrated 0 to 30 mM; 60 min at 37° C.; E1 UBA1, E2 HIS-UBCH5b; FRET europium/allophycocyanin

T1 sequence (Q9NYG5 whole entry, the tested form may be a part): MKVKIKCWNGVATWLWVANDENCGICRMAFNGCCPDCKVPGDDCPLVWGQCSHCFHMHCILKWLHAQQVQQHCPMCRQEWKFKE

inhibition of the APC11-mediated formation of multiubiquitin chains: inhibition
Compound: O[C@H](CS)[C@H](O)CS (racemic) [DTT, dithiothreitol]
